Test results from patent US8435978B2, “Substituted sulfonamide compounds” (Gruenenthal GmbH, priority 2006, dated 2013).

Legend:
human B1R receptor = molecular target: T1, human B1R receptor (Homo sapiens, UniProt P46663); assay: Functional study on the bradykinin receptor 1 (B1R), FLIPR Ca2+ assay, hB1R cells; assay type: cell-based; conditions: CHO-K1, test substance 10 μM, agonist Lys-Des-Arg9-bradykinin 0.5 nM, % inhibition compared with the maximum achievable inhibition, read-out: B1R Antagonism, human [10 μM] % Inhibition
T1 construct: host or cells: CHO K1 cells (Chinese hamster ovary), stably transfected
T1 sequence (P46663 1-353): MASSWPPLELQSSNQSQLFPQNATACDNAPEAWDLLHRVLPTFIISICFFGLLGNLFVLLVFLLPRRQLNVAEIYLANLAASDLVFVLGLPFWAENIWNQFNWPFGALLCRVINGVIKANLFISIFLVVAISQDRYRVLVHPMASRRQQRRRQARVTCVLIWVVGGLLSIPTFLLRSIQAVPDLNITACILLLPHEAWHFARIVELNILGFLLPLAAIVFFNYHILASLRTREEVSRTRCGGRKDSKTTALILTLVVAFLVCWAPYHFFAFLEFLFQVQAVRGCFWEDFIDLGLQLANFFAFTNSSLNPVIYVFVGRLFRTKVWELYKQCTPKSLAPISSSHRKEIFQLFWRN
In short: (§1)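 CHO K1 cells stably expressing human or rat B1R were loaded with Fluo-4 and read on a FLIPR (ex 488/em 540 nm, peak fluorescence). Test compounds at 10 μM were added first, then after 10 min agonist: Lys-Des-Arg9-bradykinin 0.5 nM for hB1R, Des-Arg9-bradykinin 100 nM for rB1R; % inhibition versus maximum inhibition.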

B1R receptor of the rat = molecular target: T2, B1R receptor of the rat (Rattus norvegicus, UniProt P97583); assay: Functional study on the bradykinin receptor 1 (B1R), FLIPR Ca2+ assay, rB1R cells; assay type: cell-based; conditions: CHO-K1, test substance 10 μM, agonist Des-Arg9-bradykinin 100 nM, % inhibition compared with the maximum achievable inhibition, read-out: B1R Antagonism, rat [10 μM] % Inhibition
T2 construct: host or cells: CHO K1 cells (Chinese hamster ovary), stably transfected
T2 sequence (P97583 1-337): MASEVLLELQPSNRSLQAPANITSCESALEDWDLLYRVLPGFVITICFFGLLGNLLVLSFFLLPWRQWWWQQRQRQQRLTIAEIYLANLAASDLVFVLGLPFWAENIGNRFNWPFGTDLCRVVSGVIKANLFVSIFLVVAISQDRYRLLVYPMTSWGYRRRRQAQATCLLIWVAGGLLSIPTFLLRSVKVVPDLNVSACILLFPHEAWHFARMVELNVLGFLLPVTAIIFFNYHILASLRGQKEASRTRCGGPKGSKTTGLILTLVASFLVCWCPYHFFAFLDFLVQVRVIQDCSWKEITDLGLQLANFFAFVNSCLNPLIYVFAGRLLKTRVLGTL
In short: as §1

Row | SMILES | inhibition at 10 µM (human B1R receptor) [%] | inhibition at 10 µM (B1R receptor of the rat) [%]
1 | Cc1cc(C)c(S(=O)(=O)N2Cc3ccccc3CC2COCC(=O)NCc2ccccc2N2CCN(C)CC2)c(C)c1 (stereo not drawn) [Example 75, N-[2-(4-methyl-piperazin-1-yl)-benzyl]-2-[2-(2,4,6-trimethyl-phenylsulfonyl)-1,2,3,4-tetrahydro-isoquinolin-3-ylmethoxy]-acetamide] | 50.1 | 9.11
2 | Cc1cc(C)c(S(=O)(=O)N2Cc3ccccc3CC2COCC(=O)N2CCC(N3CCN(C)CC3)CC2)c(C)c1 (stereo not drawn) [Example 292, 2-((2-(mesitylsulfonyl)-1,2,3,4-tetrahydroisoquinolin-3-yl)methoxy)-1-(4-(4-methylpiperazin-1-yl)piperidin-1-yl)ethanone] | 106 | 99.2
3 | Cc1cc(Br)cc(C)c1S(=O)(=O)N1CCCCC1COCC(=O)N1CCN(c2ccncc2)CC1 (stereo not drawn) [Example 150, 2-((1-(4-bromo-2,6-dimethylphenylsulfonyl)piperidin-2-yl)methoxy)-1-(4-(pyridin-4-yl)piperazin-1-yl)ethanone] | 98.3 | 99.1
4 | COc1cc(C)c(S(=O)(=O)N2Cc3ccccc3C[C@H]2COCC(=O)N2CCN(C3CCN(C)CC3)CC2)c(C)c1 [Example 127, (S)-2-((2-(4-methoxy-2,6-dimethylphenylsulfonyl)-1,2,3,4-tetrahydroisoquinolin-3-yl)methoxy)-1-(4-(1-methylpiperidin-4-yl)piperazin-1-yl)ethanone] | 102 | 93.7
5 | O=C(COCC1CCCCN1S(=O)(=O)c1ccc(Cl)c(Cl)c1)N1CCC(Cc2ccccc2)CC1 (stereo not drawn) [Example 57, 1-(4-benzyl-piperidin-1-yl)-2-[1-(3,4-dichloro-phenylsulfonyl)-piperidin-2-ylmethoxy]-ethanone] | 62.4 | 0
6 | CN(C)CCCN1CCN(C(=O)COCC2CCCCN2S(=O)(=O)c2cccc(C(F)(F)F)c2)CC1 (stereo not drawn) [Example 58, 1-[4-(3-dimethylamino-propyl)-piperazin-1-yl]-2-[1-(3-trifluoromethyl-phenylsulfonyl)-piperidin-2-ylmethoxy]-ethanone] | 62.2 | 10.2
7 | Cc1cc(C)c(S(=O)(=O)N2CCCCC2COCC(=O)N2CCC(N3CCCC3)CC2)c(C)c1 (stereo not drawn) [Example 19, 2-((1-(mesitylsulfonyl)piperidin-2-yl)methoxy)-1-(4-(pyrrolidin-1-yl)piperidin-1-yl)-ethanone] | 95 | 98.9
8 | COc1cc(C)c(S(=O)(=O)N2CCCC2COCC(=O)N2CCN(Cc3ccc(Cl)c(Cl)c3)CC2)c(C)c1 (stereo not drawn) [Example 349, 1-(4-(3,4-dichlorobenzyl)piperazin-1-yl)-2-((1-(4-methoxy-2,6-dimethylphenylsulfonyl)pyrrolidin-2-yl)methoxy)ethanone] | 101 | 103
9 | Cc1cc(C)nc(CC2CCCCN2C(=O)COCC2Cc3ccccc3CN2S(=O)(=O)c2c(C)cc(C)cc2C)c1 (stereo not drawn) [Example 223, 1-(2-((4,6-dimethylpyridin-2-yl)methyl)piperidin-1-yl)-2-((2-(mesitylsulfonyl)-1,2,3,4-tetrahydroisoquinolin-3-yl)methoxy)ethanone] | 26.2 | 86.4
10 | O=C(COCC1CCCCN1S(=O)(=O)c1c(Cl)cccc1Cl)N1CCN(CCc2ccccc2)CC1 (stereo not drawn) [Example 320, 2-((1-(2,6-dichlorophenylsulfonyl)piperidin-2-yl)methoxy)-1-(4-phenethylpiperazin-1-yl)ethanone] | 106 | 102
11 | COc1cc(C)c(S(=O)(=O)N2CCCC2COCC(=O)N2CCN(c3ncccn3)CC2)c(C)c1 (stereo not drawn) [Example 309, 2-((1-(4-methoxy-2,6-dimethylphenylsulfonyl)pyrrolidin-2-yl)methoxy)-1-(4-(pyrimidin-2-yl)piperazin-1-yl)ethanone] | 52 | 101

Now from value to molecule:

Row | inhibition at 10 µM (human B1R receptor) [%] | inhibition at 10 µM (B1R receptor of the rat) [%] | SMILES
12 | 92.7 | 102 | COc1cc(C)c(S(=O)(=O)N2CCCCC2COCC(=O)N2CCN(c3cccc(C(F)(F)F)c3)CC2)c(C)c1 (stereo not drawn) [Example 509, 2-((1-(4-methoxy-2,6-dimethylphenylsulfonyl)piperidin-2-yl)methoxy)-1-(4-(3-(trifluoromethyl)phenyl)piperazin-1-yl)ethanone]
13 | 17.3 | 107 | COc1cc(C)c(S(=O)(=O)N2CCCCC2COCC(=O)NCc2ccc(N(C)C)cc2)c(C)c1 (stereo not drawn) [Example 577, N-(4-(dimethylamino)benzyl)-2-((1-(4-methoxy-2,6-dimethylphenylsulfonyl)piperidin-2-yl)methoxy)acetamide]
14 | 101 | 100 | Cc1ccc(N2CCN(C(=O)COCC3CCCCN3S(=O)(=O)c3c(Cl)cccc3Cl)CC2)cc1C (stereo not drawn) [Example 403, 2-((1-(2,6-dichlorophenylsulfonyl)piperidin-2-yl)methoxy)-1-(4-(3,4-dimethylphenyl)piperazin-1-yl)ethanone]
15 | 38.6 | 101 | COc1cc(C)c(S(=O)(=O)N2CCCCC2COCC(=O)NCc2cccc(N3CCCCC3)c2)c(C)c1 (stereo not drawn) [Example 430, 2-((1-(4-methoxy-2,6-dimethylphenylsulfonyl)piperidin-2-yl)methoxy)-N-(3-(piperidin-1-yl)benzyl)acetamide]
16 | 96.4 | 108 | COc1cc(C)c(S(=O)(=O)N2CCCCC2COCC(=O)N(C)CCN2CCCCC2)c(C)c1 (stereo not drawn) [Example 532, 2-((1-(4-methoxy-2,6-dimethylphenylsulfonyl)piperidin-2-yl)methoxy)-N-methyl-N-(2-(piperidin-1-yl)ethyl)acetamide]
17 | 87 | 103 | COc1cc(C)c(S(=O)(=O)N2CCCCC2COCC(=O)N2CCN(c3cccc(Cl)c3)CC2)c(C)c1 (stereo not drawn) [Example 511, 1-(4-(3-chlorophenyl)piperazin-1-yl)-2-((1-(4-methoxy-2,6-dimethylphenylsulfonyl)piperidin-2-yl)methoxy)ethanone]
18 | 102 | 98.6 | O=C(COCC1CCCCN1S(=O)(=O)c1c(Cl)cccc1Cl)N1CCN(c2ccccc2F)CC1 (stereo not drawn) [Example 442, 2-((1-(2,6-dichlorophenylsulfonyl)piperidin-2-yl)methoxy)-1-(4-(2-fluorophenyl)piperazin-1-yl)ethanone]
19 | 55.1 | 98.5 | O=C(COCC1CCCCN1S(=O)(=O)c1c(Cl)cccc1Cl)N1CCN(c2ccc(Cl)c(Cl)c2)CC1 (stereo not drawn) [Example 404, 1-(4-(3,4-dichlorophenyl)piperazin-1-yl)-2-((1-(2,6-dichlorophenylsulfonyl)piperidin-2-yl)methoxy)ethanone]
20 | 101 | 97.9 | COc1ccc(CN2CCN(C(=O)COCC3CCCCN3S(=O)(=O)c3c(C)cc(OC)cc3C)CC2)cc1 (stereo not drawn) [Example 386, 2-((1-(4-methoxy-2,6-dimethylphenylsulfonyl)piperidin-2-yl)methoxy)-1-(4-(4-methoxybenzyl)piperazin-1-yl)ethanone]
21 | 99.2 | 97.5 | COc1cc(C)c(S(=O)(=O)N2CCCCC2COCC(=O)NCC2CCCN(Cc3ccccc3)C2)c(C)c1 (stereo not drawn) [Example 415, N-((1-benzylpiperidin-3-yl)methyl)-2-((1-(4-methoxy-2,6-dimethylphenylsulfonyl)piperidin-2-yl)methoxy)acetamide]
